From BigSolDB 2.1

O=C(N[C@H](Cc1ccccc1)C(=O)O)OCC1c2ccccc2-c2ccccc21
solubility (mole fraction)
Settings | 283.15 K | 288.15 K | 293.15 K | 298.15 K | 303.15 K | 308.15 K | 313.15 K | 318.15 K | 323.15 K
in 2-butanone | 0.00646 | 0.00728 | 0.00803 | 0.00895 | 0.00993 | 0.0112 | 0.0133 | 0.015 | 0.017
in acetone | 0.00728 | 0.00759 | 0.00837 | 0.00931 | 0.0109 | 0.0128 | 0.0146 | 0.0164 | 0.0193
in acetonitrile | 0.000619 | 0.00066 | 0.000723 | 0.00084 | 0.000952 | 0.00117 | 0.00138 | 0.00168 | 0.00203
in ethanol | 0.00161 | 0.00173 | 0.00187 | 0.00205 | 0.0024 | 0.00278 | 0.00324 | 0.004 | 0.00515
in ethyl acetate | 0.00272 | 0.003 | 0.00342 | 0.00379 | 0.00443 | 0.00504 | 0.00571 | 0.00682 | 0.00793
in isopropanol | 0.000943 | 0.00103 | 0.00114 | 0.00126 | 0.00155 | 0.00208 | 0.00263 | 0.00311 | 0.00375
in methanol | 0.00189 | 0.00192 | 0.00199 | 0.00212 | 0.00243 | 0.00285 | 0.00331 | 0.0039 | 0.00513
in methyl acetate | 0.00327 | 0.00358 | 0.00408 | 0.00458 | 0.00537 | 0.00623 | 0.0072 | 0.00884 | 0.0105
in n-butanol | 0.00121 | 0.00136 | 0.00156 | 0.00181 | 0.0022 | 0.00261 | 0.00322 | 0.00389 | 0.00511
in n-butyl acetate | 0.00209 | 0.00227 | 0.00243 | 0.00278 | 0.00305 | 0.00352 | 0.00409 | 0.0046 | 0.00536
in n-propanol | 0.00161 | 0.00168 | 0.00178 | 0.0019 | 0.00217 | 0.00252 | 0.00316 | 0.00365 | 0.00456
in n-propyl acetate | 0.0023 | 0.00244 | 0.00275 | 0.00318 | 0.00354 | 0.00405 | 0.00467 | 0.00534 | 0.00613
